Experiments:
[1] = tested on: prenatal valproate model of ASD in mice; details: 3 mg/kg intraperitoneally; cited from earlier work
[2] = tested on: monoamine oxidase A; details: human and rat enzyme; cited from earlier work
[3] = tested on: monoamine oxidase B; details: human and rat enzyme; slight preference for monoamine oxidase B; cited from earlier work
[4] = 3 mg/kg intraperitoneally; cited from earlier work
[5] = target: T1, H3 receptor (Rattus norvegicus, UniProt Q9QYN8); assay: imetit-induced dipsogenia test; format: in vivo, Harlan Wistar rats; details: rats, test compound p.o. 30 min before imetit 3 mg/kg sc.; reversal of water intake
T1 construct: from tissue; host or cells: whole living rat (central H3 receptors); animals from Janvier Elevage, France
T1 sequence (Q9QYN8 whole entry): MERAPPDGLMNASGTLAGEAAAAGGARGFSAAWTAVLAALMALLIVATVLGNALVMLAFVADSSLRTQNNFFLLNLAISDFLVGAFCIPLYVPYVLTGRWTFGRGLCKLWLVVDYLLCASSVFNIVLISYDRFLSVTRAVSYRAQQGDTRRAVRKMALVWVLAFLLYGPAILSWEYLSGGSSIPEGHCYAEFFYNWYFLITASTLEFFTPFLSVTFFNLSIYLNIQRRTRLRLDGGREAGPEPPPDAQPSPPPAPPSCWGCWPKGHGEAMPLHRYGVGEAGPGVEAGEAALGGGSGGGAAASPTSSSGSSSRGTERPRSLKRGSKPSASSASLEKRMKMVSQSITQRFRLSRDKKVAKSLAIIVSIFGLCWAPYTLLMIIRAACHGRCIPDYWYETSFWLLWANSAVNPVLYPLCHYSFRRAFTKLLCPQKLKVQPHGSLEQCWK
From the text: Brain penetrant histamine H3 receptor agonists such as R-α-methylhistamine and imetit cause an acute increase in water intake in rodents (Galici et al., 2009; Barbier et al., 2007; Clapham and Kilpatrick, 1993; Garbarg et al., 1993). This dipsogenic effect is specific to H3 receptor activation as it can be antagonized selectively by centrally acting H3 antagonists (e.g., thioperamide or clobenpropit) and not by H1 or H2 […] such as mepyramide or loxtidine, respectively (Fox et al., 2002; Clapham and Kilpatrick, 1992). Therefore, the inhibition of H3 receptor-mediated dipsogenia can be used as a central pharmacodynamic measure of in vivo H3 receptor function following peripheral administration of antagonist/inverse agonist compounds (Raddatz et al., 2012; Medhurst et al., 2007; Fox et al., 2005).
The protocol has been derived from Clapham and Kilpatrick (1992) with modifications. Group-housed adult male Harlan Wistar rats (Janvier Elevage, France) (340-500 g at the time of testing) were used as experimental animals. Rats were repeatedly used for testing for a maximum of four to five times with one week of wash-out period between testing days. Before commencing drug-testing sessions, animals were first habituated to the test procedure without receiving any drug treatment. On habituation days animals were administered 5 mL/kg distilled water p.o. and 30 min later 1 mL/kg physiological saline was injected sc., while drinking water was withdrawn from the home-cages. After a further 30 min, rats were isolated in test cages, where they had access to tap water, but not to chow. Water consumption was measured 30 min later. Rats that had drunken at least 0.2 g water during this period were randomized into treatment groups. On experimental days animals were administered the test compound or vehicle p.o. and 30 min later 3 mg/kg of the H3 receptor agonist imetit was injected sc. Investigational compounds were given in a volume of 5 mL/kg. Imetit dihydrobromide (Tocris, UK) was dissolved in physiological saline and administered in a volume of 1 mL/kg. Directly after treatment with imetit, drinking water was withdrawn from the home-cages. After an additional 30 min, rats were isolated to test cages, where they had access to tap water, but not to chow. Water consumption was measured after a free drinking period of 10 min.
Means ± S.E. of water intake (in grams) were calculated for each group. Significance of drug effect was determined by ANOVA followed by the post hoc Duncan-test. Significance was considered at the p<0.05 level. The percental reversal of imetit-induced water intake was calculated from the group means using the formula as follows, percental reversal of dipsogenia equals 1-((IME-DRUG)/(IME-VEH))·100, where IME is water intake of the p.o. vehicle plus imetit group, VEH is water intake of p.o. vehicle plus sc. vehicle group, and DRUG is water intake of p.o. test compound plus sc. […] group. Percental reversal was plotted for each dose and an ED50 value was calculated from the fitted curve (reversal values greater than 100% were taken into account as 100% reversal) based on linear regression.

[6] = tested on: prenatally valproate treated rats; assay: tactile sensitivity measurement with von Frey filaments in the prenatal valproate model; format: in vivo, Wistar rats; details: p.o., 60 min after treatment, 18-day-old rats
From the text: The prenatal valproate (VPA) model has excellent construct and face validity, therefore it is a widely accepted disease model of ASD. With respect to face validity, prenatal VPA exposure may lead to socio-communicational defects, excessive repetitive behaviors and increased sensitivity of various modalities (e.g., touch). […] Compounds that produced efficacy signals in ASD subjects comprise eg., oxytocin (Andari et al., PNAS 2010, 107:4389-4394).
In this method, time-mated female Wistar rats are administered a single dose of VPA (300 mg/kg, i.p.) on gestational day 12.5. Offspring are housed according to standard laboratory conditions until time of behavioral testing. Animals are housed in groups of 4 in conventional cages and maintained at 22-24°C on a standard 12-hour light/dark cycle, with food and water available ad libitum. […]
During the measurement with von Frey filaments, 18-day-old rats were placed separately in small cages (dimensions: 7 x 7 x 9 cm) with mesh floors. […] First, a baseline sensitivity value was determined, and animals were randomized into treatment groups based on this baseline. Sixty min after p.o. treatment sensitivity was measured again. A 50% sensitivity threshold was calculated based on the value of the last measured fiber thickness and the application pattern of the various filament thicknesses. […]

[7] = tested on: BALB/C mice; assay: three-chamber assay, social novelty session, BALB/C mouse model of ASD; format: in vivo; details: 10 mg/kg (top dose); ** p<0.01 vs. familiar
From the text: The BALB/c mouse is a low-sociability, inbred line that is accepted as an idiopathic model of ASD (Brodkin, 2007; Burket et al., 2020; Ellegood, 2015; Jacome et al., 2011). Although the precise background of behavior is not known, the line carries a loss of function single nucleotide polymorphism in the tryptophane hydroxylase gene causing a 50% reduction in enzyme function (Russo et al., 2018). […] This model also has some predictive validity as some compounds that produced efficacy signals in humans have also been active in BALB/c mice such as D-cycloserine (Deutsch et al., 2012) or oxytocin (Teng et al., 2013).
The three-chamber assay was performed in an 8-channel LABORAS™ sociability system (Metris b.v., Hoofdorp, The Netherlands). […] Consequently, movements of target mice were not recorded. Just like in the classical LABORASTM set-up (Van de Weerd et al., 2001; Quinn et al., 2003), mechanical vibration generated by movement of the animals was transformed to electrical signals that were analyzed and the trajectory of the animals was determined. […]
During the behavioral assays, test mice were habituated first to the center compartment of the three-chamber apparatus with the guillotine doors closed for 2 min. […] During this test session the time spent in the center chamber as well as with direct contact or no contact on the social versus non-social side was recorded. […]

| SMILES | imetit-induced dipsogenia ED50 [5] [mg/kg p.o.] | also measured |
| --- | --- | --- |
| O=C(c1ccc(OCCCc2cnc[nH]2)cc1)C1CC1 [ciproxifan] |  | social deficits and excessive repetitive behavior [1]: improved social deficits and excessive repetitive behavior; inhibition of monoamine oxidase A [2]: micromolar concentration range; inhibition of monoamine oxidase B [3]: micromolar concentration range; plasma exposures [4]: micromolar range |
| Cn1nc(N2CCC(OC(=O)N3CCN(C4CCC4)CC3)CC2)ccc1=O [LML-134, 1-(1-methyl-6-oxo-1,6-dihydropyridazin-3-yl)piperidin-4-yl 4-cyclobutylpiperazine-1-carboxylate] | < 1 | tactile hypersensitivity (threshold level of paw withdrawal to von Frey filaments) ([6]; 10 mg/kg (top dose), ++ p<0.01 vs. VPA): reversed this tactile hypersensitivity; social novelty (time spent with investigation of the novel animal) [7]: improve social novelty |
| CCNC(=O)C1CC(F)(c2ccc(CN3CCCC3)c(F)c2)C1 (stereo not drawn) [PF-03654746, trans-N-Ethyl-3-fluoro-3-[3-fluoro-4-(1pyrrolidinylmethyl)phenyl]cyclobutanecarboxamide] | 0.78 |  |
| Clc1ccc(CCCOCCCN2CCCCC2)cc1 [pitolisant, 1-[3-[3-(4-chlorophenyl)propoxy]propyl]piperidine] | 11 |  |
| C[C@@H]1CCCN1CCc1cc2cc(-c3ccc(C#N)cc3)ccc2o1 [ABT-239, 4-(2-{2-[(2R)-2-Methylpyrrolidin-1-yl]ethyl}-benzofuran-5-vl)benzonitrile] | 0.26 |  |

Further lines, with some results ahead:

| imetit-induced dipsogenia ED50 [5] [mg/kg p.o.] | SMILES | also measured |
| --- | --- | --- |
| < 0.3 | O=C(c1ccc(CN2CCOCC2)cc1)N1CCN(C2CC2)CC1 [bavisant, (4-cyclopropylpiperazin-1-yl)-[4-(morpholin-4-ylmethyl)phenyl]methanone] |  |
| < 1 | O=C(CN1CCOCC1)Nc1ccc(OC2CCN(C3CCC3)CC2)cc1 [samelisant, N-{4-[(1-cyclobutylpiperidin-4-yl)oxy]phenyl}-2-(morpholin-4-yl)acetamide] |  |
| 0.14 | CNC(=O)c1ccc(Oc2ccc3c(c2)CCN(C2CCC2)CC3)nc1 [GSK-189254, 6-[(3-cyclobutyl-1,2,4,5-tetrahydro-3-benzazepin-7-yl)oxy]-N-methylpyridine-3-carboxamide] | tactile hypersensitivity (threshold level of paw withdrawal to von Frey filaments) ([6]; 0.1 mg/kg (middle dose), + p<0.05 vs. VPA, inverted U-shaped dose-response curve): reversed this tactile hypersensitivity |

— EP4251148B1, “HISTAMINE H3 RECEPTOR ANTAGONISTS/INVERSE AGONISTS FOR THE TREATMENT OF AUTISM SPECTRUM DISORDER” (Richter Gedeon Nyrt., priority 2020, dated 2022)
